Results published in paper PMC7077986, “Molecular basis for catabolism of the abundant metabolite trans-4-hydroxy-L-proline by a microbial glycyl radical enzyme” (eLife, 2020).

T1: HypD (trans-4-hydroxy-L-proline dehydratase; CdHypD) (Clostridioides difficile, UniProt A0A031WDE4)
T1 construct: gene pflD; full length, N-terminal hexahistidine tag (pET28a-CdHypD), E. coli BL21-CodonPlus(DE3)-RIL (delta proC for assays); dimeric; for activity the Gly765 radical was installed by HypD-AE
T1 sequence (A0A031WDE4 1-789): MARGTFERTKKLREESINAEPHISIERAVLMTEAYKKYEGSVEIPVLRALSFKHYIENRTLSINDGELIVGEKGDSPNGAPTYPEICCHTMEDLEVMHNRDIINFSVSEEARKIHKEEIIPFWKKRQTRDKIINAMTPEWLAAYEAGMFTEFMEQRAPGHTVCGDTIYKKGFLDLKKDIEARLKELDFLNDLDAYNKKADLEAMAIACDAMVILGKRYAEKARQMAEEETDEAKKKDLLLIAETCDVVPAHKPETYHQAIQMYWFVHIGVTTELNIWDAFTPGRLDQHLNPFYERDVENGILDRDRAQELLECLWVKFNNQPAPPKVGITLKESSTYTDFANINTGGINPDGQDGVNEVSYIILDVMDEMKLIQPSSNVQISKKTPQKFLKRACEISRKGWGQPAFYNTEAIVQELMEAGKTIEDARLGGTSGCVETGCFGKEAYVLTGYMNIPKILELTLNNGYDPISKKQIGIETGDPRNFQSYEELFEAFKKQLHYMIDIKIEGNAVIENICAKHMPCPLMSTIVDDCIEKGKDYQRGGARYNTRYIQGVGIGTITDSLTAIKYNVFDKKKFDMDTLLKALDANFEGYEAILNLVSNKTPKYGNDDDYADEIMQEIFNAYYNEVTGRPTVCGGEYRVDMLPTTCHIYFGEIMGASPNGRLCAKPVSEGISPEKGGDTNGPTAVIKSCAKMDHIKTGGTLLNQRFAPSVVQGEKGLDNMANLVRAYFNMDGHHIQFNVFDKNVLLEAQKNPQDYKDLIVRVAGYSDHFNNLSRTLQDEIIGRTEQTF

B1: trans-4-hydroxy-L-proline dehydratase (HypD) from Clostridioides difficile 70-100-2010, wild type, unactivated (enzyme)
chain: T1 sequence (A0A031WDE4 1-789)
notes: HypD (trans-4-hydroxy-L-proline dehydratase), glycyl radical enzyme, gene amplified from C. difficile 70-100-2010 genomic DNA; UniProt A0A031WDE4; all residues other than the hexahistidine tag are seen in the structures; Crystallised with the N-terminal hexahistidine tag intact; also called Hyp dehydratase; CdHypD; source: E. coli BL21-CodonPlus(DE3)-RIL, pET28a-CdHypD, purified (Ni-NTA); not …

Columns and labels:
[1] = target: T1, HypD (trans-4-hydroxy-L-proline dehydratase; CdHypD); test: X-ray crystal structure, […] Å; assay type: binding; conditions: unactivated enzyme; active site; 4 mM Hyp in crystallization buffer, 100 mM Hyp in cryoprotectant, pH 7.5, 21 °C
[2] = target: the molecule itself; test: crystal structure; unactivated wild-type HypD with intact N-terminal hexahistidine tag, crystallised aerobically, hanging drop, 21°C, 14% PEG 3350, 100 mM KCl, 100 mM HEPES pH 7.5; glycerol-bound (2.05 Å) and Hyp-bound (2.52 Å) crystals; eight chains in the asymmetric unit

| Molecule | X-ray crystal structure, 2.52 Å [1] | stoichiometry N [2] |
| --- | --- | --- |
| O=C(O)[C@@H]1C[C@@H](O)CN1 [Hyp] | In the active site of the Hyp-bound HypD structure, electron density was observed for the substrate | – |
| B1 | – | 2 |
